{"source": "patent US20050020495A1", "about": "“Antiretroviral compositions comprising thymosin alpha peptides and protease inhibitors” (priority 2001, published 2005)", "key": {"[1]": {"test_system": "HIV", "test": "Randomised trial of Tα1 injections versus no injections in clinically stable HIV patients; TREC response in PBMCs, lymphocyte subsets, tolerability", "type": "in vivo, human", "procedure": "Efficacy of HIV treatment is shown by evaluating TREC response in peripheral blood mononuclear cells (PBMCs) to treatment with Tα1 plus an HIV inhibitory agent.\nTwenty clinically stable patients with viral loads <400 copies/ml and CD4 counts less than 200 cells/μl were randomised to receive 3.2 mg […] subcutaneous injections twice weekly or no injections for 12 weeks. CD4 and CD8 counts, CD45 RO+ and RA+ subsets and T cell re-excision circles (TREC) in peripheral blood mononuclear cells (PBMCs) were measured every four weeks, along with regular clinical assessments and routine laboratory tests."}, "[2]": {"test_system": "HIV", "conditions": "cited from earlier work"}}, "note": "Ends that are not written are not given here."}
{"substance": "Thymosin α1 (SDAAVDTSSEITTKDLKEKKEVVEEAEN; not fully specified (N-terminus); ends and bridges not checked; UniProt P06454 2-29, looked up) [Tα1, 28-amino acid thymic peptide hormone with immunomodulatory properties, homologous to a natural product isolated from thymosin fraction 5 of calf thymuses]", "values": [{"measurement": "Signs of toxicity during the trial", "setting": "[1]; 3.2 mg subcutaneous twice weekly for 12 weeks", "result": "no patients taking the medication developed signs of toxicity"}, {"measurement": "Tolerability", "setting": "[1]; 3.2 mg subcutaneous twice weekly for 12 weeks, 13 patients on Tα1", "result": "well tolerated"}, {"measurement": "Changes in CD4, CD8 and CD45 lymphocyte subsets versus controls", "setting": "[1]; over the 12 week study period", "result": "did not differ between the groups"}, {"measurement": "Mean TREC levels relative to control group", "setting": "[1]; week 12", "result": 20, "unit": "times"}, {"measurement": "Patients with detectable TREC levels versus control patients", "setting": "[1]; week 12", "result": "far more of the Tα1 group had detectable TREC levels than control patients"}, {"measurement": "TREC levels in PBMCs versus controls", "setting": "[1]; week 12", "result": "significant increase"}, {"measurement": "CD4 counts", "setting": "[2]; given in combination with either IL-2 or interferon-α", "result": "induced increases in CD4 counts"}, {"measurement": "Systemic adverse reactions", "setting": "[2]; patients taking zidovudine monotherapy, contrasted with IL-2 or INF-α", "result": "virtual absence of any significant systemic adverse reactions"}]}
